Numbers after ± are expanded uncertainties.
Assay: osmotic coefficient (dimensionless); mn = molality of the nth substance listed, in mol/kg
Details: 101 kPa, Liquid

O=S(=O)([O-])[O-].[Ca+2] [calcium sulfate] + O
osmotic coefficient (273.12 K, m1 = 0.00937): 0.732 ± 0.013
osmotic coefficient (273.12 K, m1 = 0.00952): 0.731 ± 0.013
osmotic coefficient (273.12 K, m1 = 0.01046): 0.723 ± 0.014
osmotic coefficient (273.12 K, m1 = 0.01092): 0.719 ± 0.014
osmotic coefficient (273.12 K, m1 = 0.011): 0.719 ± 0.014
osmotic coefficient (273.13 K, m1 = 0.00526): 0.78 ± 0.011
osmotic coefficient (273.13 K, m1 = 0.0056): 0.774 ± 0.011
osmotic coefficient (273.13 K, m1 = 0.00625): 0.766 ± 0.012
osmotic coefficient (273.13 K, m1 = 0.0067): 0.76 ± 0.012
osmotic coefficient (273.13 K, m1 = 0.00714): 0.755 ± 0.012
osmotic coefficient (273.13 K, m1 = 0.00742): 0.751 ± 0.012
osmotic coefficient (273.13 K, m1 = 0.00782): 0.747 ± 0.013
osmotic coefficient (273.13 K, m1 = 0.00915): 0.734 ± 0.013
osmotic coefficient (273.14 K, m1 = 0.00418): 0.798 ± 0.01
osmotic coefficient (273.14 K, m1 = 0.00487): 0.786 ± 0.011

— the NIST ThermoML archive (doi:10.1021/acs.jced.9b00112)
